These results are taken from PubChem BioAssay AID1963870 (Molecular Pharmacology Branch, DTP, NCI, 2024).

What is called IC50 is the concentration that gives 50% inhibition. Usually viability, T/C stands for the ratio of treated to control.

The subject of this assay is 292921-168-R-J2-PDC KRAS tumor spheroid viability. Description: Anticancer human tumor 292921-168-R-J2-PDC patient-derived pancreatic carcinoma cell line growth inhibition [KRAS2]. To be noted: spheroids with HUVEC and MSC; for viability, T/C: stronger effect = lower value. The method, boiled down:
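KRAS-mutant tumor cells were grown as spheroids with HUVEC endothelial cells and human MSCs as stroma. Targeted agents were tested alone and with KRAS pathway inhibitors. Doses started at or near clinical Cmax, or 10 microM, descending half-log.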

Setting [1] is: curve of first compound, second compound 0.1 µM.
The mark [2] stands for this setting: curve of first compound, second compound 0.316 µM.
Where [3] appears, read: curve of first compound, second compound 1 µM.
The mark [4] stands for this setting: curve of first compound, second compound 3.16 µM.
Setting [5] is: second compound 0.1 µM, first compound 0.0316 µM.
Setting [6] is: second compound 0.1 µM, first compound 0.1 µM.
Setting [7] is: second compound 0.316 µM, first compound 0.0316 µM.
The mark [8] stands for this setting: second compound 0.316 µM, first compound 0.1 µM.
The mark [9] stands for this setting: second compound 1 µM, first compound 0.0316 µM.
Where [10] appears, read: second compound 1 µM, first compound 0.1 µM.
[11] abbreviates: second compound 3.16 µM, first compound 0.0316 µM.
[12] abbreviates: second compound 3.16 µM, first compound 0.1 µM.
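Also: drug exposure lasted seven days after spheroids formed for three days.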
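For viability, T/C in this document: percent of DMSO vehicle control viability which is 100%.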

Consider `Cn1ncnc1[C@H]1c2n[nH]c(=O)c3cc(F)cc(c23)N[C@@H]1c1ccc(F)cc1` + C=CC(=O)N1CCN(c2nc(OCC3CCCN3C)nc3c2CCN(c2cccc4cccc(C)c24)C3)CC1CC#N, for which the IC50 (curve of first compound, second compound 0.0316 µM) was over 100 nM; the IC50 under setting [1] is over 100 nM; the IC50 under setting [2] was 81.9 nM; the IC50 under setting [3] is under 0.316 nM; the IC50 under setting [4] was under 0.316 nM. Also, the viability, T/C (second compound 0.0316 µM, first compound 0.000316 µM) was 99.5%; the viability, T/C (second compound 0.0316 µM, first compound 0.001 µM) is 93%; the viability, T/C (second compound 0.0316 µM, first compound 0.00316 µM) is 93.2%; the viability, T/C (second compound 0.0316 µM, first compound 0.01 µM) was 93.6%; the viability, T/C (second compound 0.0316 µM, first compound 0.0316 µM) was 81.7%; the viability, T/C (second compound 0.0316 µM, first compound 0.1 µM) is 67.3%. The viability, T/C was 96.7% (second compound 0.1 µM, first compound 0.000316 µM); 93.5% (second compound 0.1 µM, first compound 0.001 µM); 91.7% (second compound 0.1 µM, first compound 0.00316 µM); 83.6% (second compound 0.1 µM, first compound 0.01 µM); 77.6% under setting [5]; 63.7% under setting [6]. In addition, the viability, T/C was 88.1% (second compound 0.316 µM, first compound 0.000316 µM); 82.1% (second compound 0.316 µM, first compound 0.001 µM); 72.9% (second compound 0.316 µM, first compound 0.00316 µM); 74.9% (second compound 0.316 µM, first compound 0.01 µM); 65% under setting [7]; 46.4% under setting [8]. Moreover, the viability, T/C was 42.1% (second compound 1 µM, first compound 0.000316 µM); 42.9% (second compound 1 µM, first compound 0.001 µM); 37.1% (second compound 1 µM, first compound 0.00316 µM); 32.5% (second compound 1 µM, first compound 0.01 µM); 29.8% under setting [9]; 28.3% under setting [10]. Further, the viability, T/C was 0.3% (second compound 3.16 µM, first compound 0.000316 µM); 0.12% (second compound 3.16 µM, first compound 0.001 µM); 0.12% (second compound 3.16 µM, first compound 0.00316 µM); 0.11% (second compound 3.16 µM, first compound 0.01 µM); 0.13% under setting [11]; 0.17% under setting [12].
With `CC(=O)OC12COC1CC(O)C1(C)C(=O)C(O)C3=C(C)C(OC(=O)C(O)C(NC(=O)OC(C)(C)C)c4ccccc4)CC(O)(C(OC(=O)c4ccccc4)C21)C3(C)C` (centres undefined), the viability, T/C is, setting by setting: (compound 0.01 µM) 14.3% [middle of 5 runs]; (compound 0.0316 µM) 14.3% [middle of 5 runs]; (compound 0.1 µM) 12.4% [middle of 5 runs]; (compound 0.316 µM) 12.8% [middle of 5 runs]; (compound 1 µM) 13.8% [middle of 5 runs]; (compound 3.16 µM) 17.6% [middle of 5 runs]. Besides, where the note is “curve of compound”, the IC50 is under 10 nM.
Regarding `Cn1nccc1Nc1nccc(-c2cc3c(s2)C(C)(C)N(CCN2CCOCC2)C3=O)n1` + C=CC(=O)N1CCN(c2nc(=O)n(-c3c(C)ccnc3C(C)C)c3nc(-c4c(O)cccc4F)c(F)cc23)C(C)C1, the half-inhibitory concentration (IC50) runs as follows: under setting [1], 122 nM; under setting [2], 131 nM; under setting [3], 111 nM; under setting [4], 77.7 nM; (curve of first compound, second compound 10 µM) under 31.6 nM. The viability, T/C reads like this: under setting [5], 95.1%; under setting [6], 55.6%; (second compound 0.1 µM, first compound 0.316 µM) 23.7%; (second compound 0.1 µM, first compound 1 µM) 12.3%; (second compound 0.1 µM, first compound 3.16 µM) 11.2%; (second compound 0.1 µM, first compound 10 µM) 11.1%. For the same molecule, the viability, T/C was 107% under setting [7]; 58.5% under setting [8]; 21.9% (second compound 0.316 µM, first compound 0.316 µM); 13.7% (second compound 0.316 µM, first compound 1 µM); 12.4% (second compound 0.316 µM, first compound 3.16 µM); 12.6% (second compound 0.316 µM, first compound 10 µM). Besides, the viability, T/C reads like this: under setting [9], 115%; under setting [10], 52.7%; (second compound 1 µM, first compound 0.316 µM) 22.5%; (second compound 1 µM, first compound 1 µM) 15.2%; (second compound 1 µM, first compound 3.16 µM) 12.5%; (second compound 1 µM, first compound 10 µM) 14.4%. Also, the viability, T/C by setting is: under setting [11], 76.6%; under setting [12], 42.5%; (second compound 3.16 µM, first compound 0.316 µM) 19.2%; (second compound 3.16 µM, first compound 1 µM) 14.3%; (second compound 3.16 µM, first compound 3.16 µM) 13.8%; (second compound 3.16 µM, first compound 10 µM) 17.2%. For the same molecule, the viability, T/C is 25.2% (second compound 10 µM, first compound 0.0316 µM); 18% (second compound 10 µM, first compound 0.1 µM); 14.6% (second compound 10 µM, first compound 0.316 µM); 14.4% (second compound 10 µM, first compound 1 µM); 15.1% (second compound 10 µM, first compound 3.16 µM); 19.5% (second compound 10 µM, first compound 10 µM).
Take `CC1(C)CCC(CN2CCN(c3ccc(C(=O)NS(=O)(=O)c4ccc(NCC5CCOCC5)c([N+](=O)[O-])c4)c(Oc4cnc5[nH]ccc5c4)c3)CC2)=C(c2ccc(Cl)cc2)C1`: the viability, T/C (compound 0.0316 µM) is 102% [middle of 5 runs]; the viability, T/C (compound 0.1 µM) is 98.2% [middle of 5 runs]; the viability, T/C (compound 0.316 µM) was 95.9% [middle of 5 runs]; the viability, T/C (compound 1 µM) was 100% [middle of 5 runs]; the viability, T/C (compound 3.16 µM) is 27.2% [middle of 5 runs]; the viability, T/C (compound 10 µM) is 10.3% [middle of 5 runs]. Moreover, the IC50 (curve of compound) was 2.17 µM [middle of 4 runs].
